Drawing on PubChem BioAssay AID256 (DTP/NCI, 2004), this text covers T/C for 21 compounds.

Several values for one entry are separate records, joined by “and”; a condition that tells them apart may be missing. Equal entries are not always repeated. Inconclusive results and toxic doses are left out.

The test system of this assay is CD2F1 mice, L1210 leukemia ip, survival T/C. The assay is described as follows: NCI In Vivo Anticancer Drug Screen. Data for tumor model L1210 Leukemia (intraperitoneal) in CD2F1 (CDF1) mice. The following applies: higher = longer survival. The gist of the method:
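Compound-dosed mice with transplantable tumor versus matched vehicle controls; endpoint ratio T/C reported.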

Where [1] appears, read: endpoint: mean survival time, dose: 100.0 mg/kg/injection, schedule: Q04DX003 (ip), vehicle: saline.
The mark [2] stands for this setting: endpoint: mean survival time, dose: 200.0 mg/kg/injection, schedule: Q04DX003 (ip), vehicle: saline.
Where [3] appears, read: endpoint: mean survival time, dose: 400.0 mg/kg/injection, schedule: Q04DX003 (ip), vehicle: saline.
Setting [4] is: endpoint: mean survival time, dose: 25.0 mg/kg/injection, schedule: Q01DX009 (ip), vehicle: saline.

Consider `c1cc(NC2CCCCC2)ccc1CN1CCOCC1`, for which the T/C is 99 % of control and 100 % of control (endpoint: mean survival time, dose: 12.5 mg/kg/injection, schedule: Q01DX009 (ip), vehicle: saline + Tween-80 + alcohol); 99 % of control and 102 % of control (endpoint: mean survival time, dose: 25.0 mg/kg/injection, schedule: Q01DX009 (ip), vehicle: saline + Tween-80 + alcohol); 97 % of control and 100 % of control (endpoint: mean survival time, dose: 50.0 mg/kg/injection, schedule: Q01DX009 (ip), vehicle: saline + Tween-80 + alcohol); 99 % of control and 103 % of control (endpoint: mean survival time, dose: 100.0 mg/kg/injection, schedule: Q01DX009 (ip), vehicle: saline + Tween-80 + alcohol); 94 % of control and 100 % of control (endpoint: mean survival time, dose: 200.0 mg/kg/injection, schedule: Q01DX009 (ip), vehicle: saline + Tween-80 + alcohol); 97 % of control and 100 % of control (endpoint: mean survival time, dose: 400.0 mg/kg/injection, schedule: Q01DX009 (ip), vehicle: saline + Tween-80 + alcohol).

Turning to `C1=C(c2ccccc2)NN=C(c2ccccc2)C1c1ccccc1` (stereo unspecified), the T/C (endpoint: mean survival time, dose: 1.56 mg/kg/injection, schedule: Q01DX001 (ip), vehicle: saline with Tween-80) was 103 % of control; the T/C (endpoint: mean survival time, dose: 1.56 mg/kg/injection, schedule: Q01DX009 (ip), vehicle: saline with Tween-80) was 98 % of control; the T/C (endpoint: mean survival time, dose: 3.13 mg/kg/injection, schedule: Q01DX001 (ip), vehicle: saline with Tween-80) is 101 % of control; the T/C (endpoint: mean survival time, dose: 3.13 mg/kg/injection, schedule: Q01DX009 (ip), vehicle: saline with Tween-80) was 102 % of control; the T/C (endpoint: mean survival time, dose: 6.25 mg/kg/injection, schedule: Q01DX001 (ip), vehicle: saline with Tween-80) was 94 % of control; the T/C (endpoint: mean survival time, dose: 6.25 mg/kg/injection, schedule: Q01DX009 (ip), vehicle: saline with Tween-80) was 98 % of control. Further, the T/C (endpoint: mean survival time, dose: 50.0 mg/kg/injection, schedule: Q01DX001 (ip), vehicle: saline with Tween-80) is 87 % of control.

With `CCCCCCCCCC(=O)CCCCC`, the T/C runs as follows: (endpoint: mean survival time, dose: 100.0 mg/kg/injection, schedule: Q04DX003 (ip), vehicle: other) 89 % of control; (endpoint: mean survival time, dose: 200.0 mg/kg/injection, schedule: Q04DX003 (ip), vehicle: other) 94 % of control; (endpoint: mean survival time, dose: 400.0 mg/kg/injection, schedule: Q04DX003 (ip), vehicle: other) 103 % of control.

With `C=CC1OC2CCCCC2O1` (stereo unspecified), the T/C (endpoint: mean survival time, dose: 100.0 mg/kg/injection, schedule: Q01DX001 (ip), vehicle: acetone) is 104 % of control.

With `c1ccc2c[n+]3cc4ccccc4cc3cc2c1`, the T/C by setting is: (endpoint: mean survival time, dose: 12.5 mg/kg/injection, schedule: Q04DX003 (ip), vehicle: saline) 104 % of control; (endpoint: mean survival time, dose: 25.0 mg/kg/injection, schedule: Q04DX003 (ip), vehicle: saline) 97 % of control.

Consider `COc1ccc(C(CO)CC(=O)NCCN(C)C)cc1` (stereo unspecified), for which the T/C was 100 % of control (endpoint: mean survival time, dose: 100.0 mg/kg/injection, schedule: Q04DX002 (ip), vehicle: saline) and 107 % of control (endpoint: mean survival time, dose: 200.0 mg/kg/injection, schedule: Q04DX002 (ip), vehicle: saline).

On to `O=C1NC(=O)C2CC(Br)C(Br)CC12` (stereo unspecified), for which the T/C (endpoint: mean survival time, dose: 5.0 mg/kg/injection, schedule: Q01DX001 (ip), vehicle: saline) was 103 % of control; the T/C (endpoint: mean survival time, dose: 10.0 mg/kg/injection, schedule: Q01DX001 (ip), vehicle: saline) was 101 % of control; the T/C (endpoint: mean survival time, dose: 20.0 mg/kg/injection, schedule: Q01DX001 (ip), vehicle: saline) is 100 % of control.

As for `O=C1CN(CCN2CC(=O)N(CN3CCOCC3)C(=O)C2)CC(=O)N1CN1CCOCC1`, the T/C was 111 % of control (endpoint: median survival time, dose: 12.5 mg/kg/injection, schedule: Q01DX009 (ip), vehicle: water); 118 % of control (endpoint: median survival time, dose: 25.0 mg/kg/injection, schedule: Q01DX009 (ip), vehicle: water); 164 % of control (endpoint: median survival time, dose: 50.0 mg/kg/injection, schedule: Q01DX009 (ip), vehicle: water); 181 % of control and 188 % of control (endpoint: median survival time, dose: 100.0 mg/kg/injection, schedule: Q01DX009 (ip), vehicle: water); 97 % of control and 111 % of control (endpoint: median survival time, dose: 200.0 mg/kg/injection, schedule: Q01DX009 (ip), vehicle: water).

On to `CC1(C)OC2C(CF)OC(n3cc(Br)c(=O)[nH]c3=O)C2O1` (stereo unspecified), for which the T/C is 98 % of control (endpoint: median survival time, dose: 12.5 mg/kg/injection, schedule: Q01DX005 (ip), vehicle: distilled water + Tween-80); 94 % of control (endpoint: median survival time, dose: 25.0 mg/kg/injection, schedule: Q01DX005 (ip), vehicle: distilled water + Tween-80); 101 % of control (endpoint: median survival time, dose: 50.0 mg/kg/injection, schedule: Q01DX005 (ip), vehicle: distilled water + Tween-80); 103 % of control (endpoint: median survival time, dose: 100.0 mg/kg/injection, schedule: Q01DX005 (ip), vehicle: distilled water + Tween-80); 88 % of control (endpoint: median survival time, dose: 200.0 mg/kg/injection, schedule: Q01DX005 (ip), vehicle: distilled water + Tween-80).

Regarding `CCOC(=O)c1cnc2c(cnn2CC)c1NN=C(C)C`, the T/C is, setting by setting: under setting [1], 105 % of control; under setting [2], 105 % of control.

As to `C#CCn1c2ccccc2c2ccccc21`, the T/C was 106 % of control under setting [1], 98 % of control under setting [2] and 104 % of control under setting [3].

`CC(C)(C)OC(=O)NC(CO)C(=O)O` (stereo unspecified): the T/C reads like this: (endpoint: mean survival time, dose: 100.0 mg/kg/injection, schedule: Q04DX003 (ip), vehicle: saline with Tween-80) 92 % of control; (endpoint: mean survival time, dose: 200.0 mg/kg/injection, schedule: Q04DX003 (ip), vehicle: saline with Tween-80) 86 % of control; (endpoint: mean survival time, dose: 400.0 mg/kg/injection, schedule: Q04DX003 (ip), vehicle: saline with Tween-80) 94 % of control.

With `COC(=O)c1ccc(OCc2ccccc2)c([N+](=O)[O-])c1`, the T/C (endpoint: mean survival time, dose: 100.0 mg/kg/injection, schedule: Q01DX001 (ip), vehicle: saline sonified) was 98 % of control; the T/C (endpoint: mean survival time, dose: 100.0 mg/kg/injection, schedule: Q01DX009 (ip), vehicle: saline with Tween-80) is 105 % of control; the T/C (endpoint: mean survival time, dose: 200.0 mg/kg/injection, schedule: Q01DX001 (ip), vehicle: saline sonified) was 96 % of control; the T/C (endpoint: mean survival time, dose: 200.0 mg/kg/injection, schedule: Q01DX009 (ip), vehicle: saline with Tween-80) was 97 % of control; the T/C (endpoint: mean survival time, dose: 400.0 mg/kg/injection, schedule: Q01DX001 (ip), vehicle: saline sonified) is 95 % of control; the T/C (endpoint: mean survival time, dose: 400.0 mg/kg/injection, schedule: Q01DX009 (ip), vehicle: saline with Tween-80) is 105 % of control.

As for `CCCOC(=O)COc1ccc(F)cc1F`, the T/C reads like this: (endpoint: mean survival time, dose: 25.0 mg/kg/injection, schedule: Q04DX002 (ip), vehicle: saline with Tween-80) 103 % of control; (endpoint: mean survival time, dose: 50.0 mg/kg/injection, schedule: Q04DX002 (ip), vehicle: saline with Tween-80) 100 % of control; (endpoint: mean survival time, dose: 100.0 mg/kg/injection, schedule: Q04DX002 (ip), vehicle: saline with Tween-80) 92 % of control and 95 % of control; (endpoint: mean survival time, dose: 400.0 mg/kg/injection, schedule: Q04DX002 (ip), vehicle: saline with Tween-80) 95 % of control.

As to `CCOC(=O)Nc1cc(N)c2n[nH]nc2n1`, the T/C is 100 % of control (endpoint: mean survival time, dose: 100.0 mg/kg/injection, schedule: Q01DX001 (ip), vehicle: carboxymethylcellulose (CMC)); 98 % of control (endpoint: mean survival time, dose: 200.0 mg/kg/injection, schedule: Q01DX001 (ip), vehicle: carboxymethylcellulose (CMC)); 102 % of control (endpoint: mean survival time, dose: 400.0 mg/kg/injection, schedule: Q01DX001 (ip), vehicle: carboxymethylcellulose (CMC)).

As for `CCOc1ccc2cc(S(=O)(=O)O)ccc2c1N`, the T/C is, setting by setting: under setting [1], 93 % of control; under setting [2], 95 % of control; under setting [3], 103 % of control.

With `[N-]=[N+]=CC(=O)CCC(=O)C=[N+]=[N-]`, the T/C is 106 % of control (endpoint: mean survival time, dose: 12.5 mg/kg/injection, schedule: Q01DX009 (ip), vehicle: other) and 90 % of control (endpoint: mean survival time, dose: 25.0 mg/kg/injection, schedule: Q01DX009 (ip), vehicle: other).

As to `CCN(CC)Cc1ccccn1`, the T/C under setting [4] is 94 % of control; the T/C (endpoint: mean survival time, dose: 50.0 mg/kg/injection, schedule: Q01DX009 (ip), vehicle: saline) was 97 % of control; the T/C (endpoint: mean survival time, dose: 100.0 mg/kg/injection, schedule: Q01DX009 (ip), vehicle: saline) was 92 % of control; the T/C under setting [1] was 95 % of control.

On to `COC1NC(=O)NC(=O)C1=[N+]=[N-]` (stereo unspecified), for which the T/C (endpoint: mean survival time, dose: 2.5 mg/kg/injection, schedule: Q01DX009 (ip), vehicle: saline with Tween-80) was 113 % of control.

`CN1CCC(CCOCc2ccccc2)(CN2c3ccccc3Sc3ccccc32)C1` (stereo unspecified): the T/C is, setting by setting: (endpoint: mean survival time, dose: 6.25 mg/kg/injection, schedule: Q04DX003 (ip), vehicle: saline with Tween-80) 106 % of control; (endpoint: mean survival time, dose: 12.5 mg/kg/injection, schedule: Q04DX003 (ip), vehicle: saline with Tween-80) 110 % of control; (endpoint: mean survival time, dose: 25.0 mg/kg/injection, schedule: Q04DX003 (ip), vehicle: saline with Tween-80) 104 % of control.

Take `C[N+]1=C2CCCC2=C(N)CC1`: the T/C was 105 % of control (endpoint: mean survival time, dose: 6.25 mg/kg/injection, schedule: Q01DX009 (ip), vehicle: saline); 100 % of control (endpoint: mean survival time, dose: 12.5 mg/kg/injection, schedule: Q01DX009 (ip), vehicle: saline); 98 % of control under setting [4].
